PubChem BioAssay AID2202554 (NIEHS Division of Translational Toxicology (DTT))
Results filed as inconclusive are left out. Active and inactive are the calls of the source. The rule behind the calls is not given here.

Test system: S. typhimurium/E. coli reverse mutation, colony counts
Assay: Bacterial reverse mutation test (aka Ames test) summary data
Outline: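 S. typhimurium his⁻ strains (TA97–TA1538) and E. coli WP2 uvrA pKM101 trp⁻, dosed over a range with or without rat, hamster or mouse liver S9. Preincubated 20 min at 37° C (or plate incorporation), plated in agar, incubated usually two days. Revertant colonies counted against negative controls.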

Question: With `Cc1ccc(OCC2CO2)cc1` (centres undefined) as the compound, how does the outcome read?
Answer: active; positive

Question: Which outcome does the source give for `CN(C)[C@@H]1C(=O)C(C(N)=O)=C(O)[C@@]2(O)C(=O)C3=C(O)c4c(O)cccc4[C@@](C)(O)[C@H]3[C@H](O)[C@@H]12` here?
Answer: inactive; negative

Question: How did the outcome turn out when `O=c1cc(-c2ccc(O)cc2)oc2cc(O)cc(O)c12` was run?
Answer: inactive; negative

Question: With `CC1(C)C(=O)N(Cl)C(=O)N1Cl` as the compound, how does the outcome read?
Answer: inactive; negative

Question: `C=COC(C)=O` was tested. Which outcome did it give?
Answer: inactive; negative

Question: Which outcome does the source give for `O=C1c2ccccc2C(=O)c2ccccc21` here?
Answer: active; positive

Question: For `NO`, which outcome is on record?
Answer: active; weakly positive

Question: With `Nc1ccc(S(=O)(=O)O)cc1` as the compound, how does the outcome read?
Answer: inactive; negative

Question: How did the outcome turn out when `O=CCCCC=O` was run?
Answer: active; positive

Question: `CCCCC(CC)COCCCN` (centres undefined) was tested. Which outcome did it give?
Answer: inactive; negative

Question: With `CCCCOC(=O)c1ccccc1C(=O)OC1CCCCC1` as the compound, how does the outcome read?
Answer: inactive; negative

Question: Which outcome does the source give for `O=C(O)CC(=O)O` here?
Answer: inactive; negative

Question: For `Cc1cc2nc3c(=O)[nH]c(=O)nc-3n(C[C@H](O)[C@H](O)[C@H](O)CO)c2cc1C`, which outcome is on record?
Answer: inactive; negative

Question: How did the outcome turn out when `CCCN(CCC)S(=O)(=O)c1ccc(C(=O)O)cc1` was run?
Answer: inactive; negative

Question: For `Nc1ccc(Cl)cc1N`, which outcome is on record?
Answer: active; positive

Question: How did the outcome turn out when `Clc1ccc(COC(Cn2ccnc2)c2ccc(Cl)cc2Cl)cc1` (centres undefined) was run?
Answer: inactive; negative

Question: `S=C(NC1CCCCC1)NC1CCCCC1` was tested. Which outcome did it give?
Answer: inactive; negative

Question: How did the outcome turn out when `Nc1ccccc1N` was run?
Answer: active; positive

Question: For `Cc1ccc(Cl)cc1N`, which outcome is on record?
Answer: inactive; negative

Question: How did the outcome turn out when `CC(=O)NS(=O)(=O)c1ccc(N)cc1` was run?
Answer: inactive; negative

Question: How did the outcome turn out when `Cc1cc(-c2ccc(N=Nc3c(S(=O)(=O)O)cc4cc(S(=O)(=O)O)cc(N)c4c3O)c(C)c2)ccc1N=Nc1c(S(=O)(=O)O)cc2cc(S(=O)(=O)O)cc(N)c2c1O` was run?
Answer: active; positive

Question: How did the outcome turn out when `O[C@H]([C@H](O)[C@@H](O)CBr)[C@H](O)CBr` was run?
Answer: active; positive

Question: Which outcome does the source give for `ClC(Cl)=C(Cl)Cl` here?
Answer: inactive; negative

Question: For `c1ccc2cc3ccccc3cc2c1`, which outcome is on record?
Answer: active; weakly positive

Question: For `FC(Cl)(Cl)Cl`, which outcome is on record?
Answer: inactive; negative

Question: Which outcome does the source give for `CC(C)Nc1ccc(Nc2ccccc2)cc1` here?
Answer: inactive; negative

Question: `ClCCOCCCl` was tested. Which outcome did it give?
Answer: active; weakly positive

Question: Which outcome does the source give for `CCN(CC)C(=S)S[Te](SC(=S)N(CC)CC)(SC(=S)N(CC)CC)SC(=S)N(CC)CC` here?
Answer: inactive; negative

Question: For `OCC(Cl)CCl` (centres undefined), which outcome is on record?
Answer: active; positive

Question: For `COC(=O)c1ccc(C=O)cc1`, which outcome is on record?
Answer: inactive; negative

Question: How did the outcome turn out when `O=C(O)/C=C/C(=O)O` was run?
Answer: inactive; negative

Question: For `O=C1NC2NC(=O)NC2N1` (centres undefined), which outcome is on record?
Answer: inactive; negative

Question: How did the outcome turn out when `COc1ccc(CN(CCN(C)C)c2ccccn2)cc1` was run?
Answer: inactive; negative

Question: How did the outcome turn out when `C=CCOC(=O)c1ccccc1C(=O)OCC=C` was run?
Answer: inactive; negative

Question: With `[CH3][Sn]([CH3])([F])[F]` as the compound, how does the outcome read?
Answer: inactive; negative

Question: With `Clc1ccc(C(c2ccc(Cl)cc2)C(Cl)(Cl)Cl)cc1` as the compound, how does the outcome read?
Answer: inactive; negative

Question: How did the outcome turn out when `ClCCl` was run?
Answer: active; positive

Question: `ClCCCCl` was tested. Which outcome did it give?
Answer: active; positive

Question: For `O=C1OC(=O)c2cc([N+](=O)[O-])ccc21`, which outcome is on record?
Answer: active; positive

Question: How did the outcome turn out when `[CH3][Sn]([Cl])([Cl])[Cl]` was run?
Answer: inactive; negative

Question: `CC1CCC2CC1C2(C)C` (centres undefined) was tested. Which outcome did it give?
Answer: inactive; negative

Question: Which outcome does the source give for `O=C(Cl)c1ccc([N+](=O)[O-])cc1` here?
Answer: active; positive

Question: Which outcome does the source give for `Cc1c(N)cccc1[N+](=O)[O-]` here?
Answer: active; positive

Question: Which outcome does the source give for `NC(=O)NN=Cc1ccc([N+](=O)[O-])o1` here?
Answer: active; positive

Question: `CCCC(O)C(CC)CO` (centres undefined) was tested. Which outcome did it give?
Answer: inactive; negative

Question: With `C[C@H]1CCC[C@H](O)CCCCCc2cc(O)cc(O)c2C(=O)O1` as the compound, how does the outcome read?
Answer: inactive; negative

Question: How did the outcome turn out when `O=C1OC(=O)c2c(Br)c(Br)c(Br)c(Br)c21` was run?
Answer: inactive; negative

Question: For `Nc1c(Cl)cc([N+](=O)[O-])cc1Cl`, which outcome is on record?
Answer: active; positive

Question: `CN(C)C` was tested. Which outcome did it give?
Answer: inactive; negative

Question: Which outcome does the source give for `Nc1ccccc1S(=O)(=O)O` here?
Answer: active; weakly positive

Question: For `CC(C)=CCC1CCCC1=O` (centres undefined), which outcome is on record?
Answer: inactive; negative

Question: With `CN1CCC[C@H]1c1cccnc1` as the compound, how does the outcome read?
Answer: inactive; negative

Question: Which outcome does the source give for `O=P(Oc1ccccc1)(Oc1ccccc1)Oc1ccccc1` here?
Answer: inactive; negative

Question: `O=C([O-])c1ccccc1C1c2ccc([O-])c(Br)c2Oc2c1ccc(O)c2Br.[Zr+2]` was tested. Which outcome did it give?
Answer: inactive; negative

Question: Which outcome does the source give for `N[C@@H](Cc1c[nH]c2ccccc12)C(=O)O` here?
Answer: inactive; negative

Question: How did the outcome turn out when `COc1ccc(C=O)cc1` was run?
Answer: inactive; negative

Question: How did the outcome turn out when `Cc1ccccc1C(=O)O` was run?
Answer: inactive; negative

Question: With `CCCCCCC[CH2][Sn]1([CH2]CCCCCCC)[O]C(=O)C=CC(=O)[O]1` as the compound, how does the outcome read?
Answer: inactive; negative

Question: With `Cc1cc(N=Nc2c(O)ccc3ccccc23)c(S(=O)(=O)O)cc1Cl` as the compound, how does the outcome read?
Answer: active; weakly positive

Question: For `CNN`, which outcome is on record?
Answer: inactive; negative

Question: `CCc1ccccc1` was tested. Which outcome did it give?
Answer: inactive; negative

Question: `O=C(CCl)c1ccc(Cl)cc1Cl` was tested. Which outcome did it give?
Answer: active; positive

Question: For `O=Nc1ccc(O)cc1`, which outcome is on record?
Answer: active; weakly positive

Question: `Cn1c(-c2ccccc2)c(N=Nc2scc[n+]2C)c2ccccc21` was tested. Which outcome did it give?
Answer: active; positive
